Assay results published in patent publication US7413895B2, “DNA encoding neutral amino acid transporter” (Japan Science and Technology Corporation, priority 1998, dated 2008).
“Also recorded” adds a separate entry of the source.

Assays:
[1] = system: T24 cells derived from human bladder cancer; experiment: Inhibition of 14C-leucine incorporation by T24 cells by amino acids and similar substances; format: cell-based; details: 14C-leucine 20 μM, 2 mM unlabeled compound
[2] = target: T1, human amino acid transporter LAT1 (Homo sapiens, UniProt Q01650); experiment: Incorporation of 14C-labeled amino acids into oocytes co-expressing human LAT1 and human 4F2hc; format: cell-based; set-up: expressed in transfected cells; details: for incorporation in a cell in which human LAT1 and human 4F2hc are co-expressed: summary statement of the disclosure; for incorporation of 14C-labeled amino acid into oocytes: oocytes co-expressing human LAT1 and human 4F2hc, 14C-labeled substrate 50 μM, 30 minutes
T1 sequence (Q01650 whole entry): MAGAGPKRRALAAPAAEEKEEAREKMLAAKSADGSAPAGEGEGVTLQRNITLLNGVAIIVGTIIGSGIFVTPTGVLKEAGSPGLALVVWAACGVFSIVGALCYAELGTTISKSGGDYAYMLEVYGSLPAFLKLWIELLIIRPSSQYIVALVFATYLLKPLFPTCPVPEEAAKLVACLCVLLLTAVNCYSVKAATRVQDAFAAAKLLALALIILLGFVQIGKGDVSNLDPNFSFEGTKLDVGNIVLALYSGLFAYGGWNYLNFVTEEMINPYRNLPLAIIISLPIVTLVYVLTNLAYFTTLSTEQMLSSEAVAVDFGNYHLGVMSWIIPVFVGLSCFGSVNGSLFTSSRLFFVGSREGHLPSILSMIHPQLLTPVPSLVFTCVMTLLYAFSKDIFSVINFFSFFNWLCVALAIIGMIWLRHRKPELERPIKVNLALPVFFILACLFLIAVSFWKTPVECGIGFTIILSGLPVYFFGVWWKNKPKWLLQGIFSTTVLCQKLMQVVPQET
T1 sequence (as listed by the source partner): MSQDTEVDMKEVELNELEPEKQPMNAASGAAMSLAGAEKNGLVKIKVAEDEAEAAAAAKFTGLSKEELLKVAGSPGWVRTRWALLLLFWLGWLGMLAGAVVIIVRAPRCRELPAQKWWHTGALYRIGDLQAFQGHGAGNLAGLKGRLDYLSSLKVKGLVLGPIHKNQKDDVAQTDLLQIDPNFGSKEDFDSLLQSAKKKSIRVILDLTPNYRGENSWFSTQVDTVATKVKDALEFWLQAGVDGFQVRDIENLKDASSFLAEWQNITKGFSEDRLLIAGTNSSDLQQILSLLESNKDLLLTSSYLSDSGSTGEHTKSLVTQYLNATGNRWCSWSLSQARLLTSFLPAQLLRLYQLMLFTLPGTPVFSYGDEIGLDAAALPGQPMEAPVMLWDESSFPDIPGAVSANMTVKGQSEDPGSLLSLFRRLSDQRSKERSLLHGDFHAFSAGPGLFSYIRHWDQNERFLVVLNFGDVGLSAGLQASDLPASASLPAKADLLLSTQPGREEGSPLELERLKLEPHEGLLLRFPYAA

[3] = target: T2, rat neutral amino acid transporter LAT1 (Rattus norvegicus, UniProt Q63016); experiment: Inhibition of 14C-leucine incorporation into oocytes injected with rat LAT1 and rat 4F2hc cRNA by amino acids and similar substances; format: cell-based; set-up: expressed in transfected cells; host or cells: oocytes (Xenopus laevis by the cited method of Kanai and Hediger) injected with rat LAT1 cRNA and rat 4F2hc cRNA; details: rat LAT1/rat 4F2hc oocytes; 14C-leucine 20 μM, 2 mM unlabeled compound, choline uptake solution
T2 sequence (Q63016 whole entry): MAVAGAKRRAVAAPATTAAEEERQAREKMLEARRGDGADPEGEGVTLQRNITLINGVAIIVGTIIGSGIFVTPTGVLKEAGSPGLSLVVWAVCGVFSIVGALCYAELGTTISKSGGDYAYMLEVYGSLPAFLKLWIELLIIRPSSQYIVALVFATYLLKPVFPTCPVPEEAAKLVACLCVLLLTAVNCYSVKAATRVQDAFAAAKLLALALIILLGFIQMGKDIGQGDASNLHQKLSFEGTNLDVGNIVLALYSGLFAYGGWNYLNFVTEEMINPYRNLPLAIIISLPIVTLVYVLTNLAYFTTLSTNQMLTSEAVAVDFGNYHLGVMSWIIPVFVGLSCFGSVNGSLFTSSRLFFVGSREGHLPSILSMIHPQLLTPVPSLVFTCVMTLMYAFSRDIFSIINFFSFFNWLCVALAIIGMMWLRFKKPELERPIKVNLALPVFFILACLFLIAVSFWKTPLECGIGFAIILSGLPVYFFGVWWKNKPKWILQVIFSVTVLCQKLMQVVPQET
T2 sequence (Q794F9 whole entry partner): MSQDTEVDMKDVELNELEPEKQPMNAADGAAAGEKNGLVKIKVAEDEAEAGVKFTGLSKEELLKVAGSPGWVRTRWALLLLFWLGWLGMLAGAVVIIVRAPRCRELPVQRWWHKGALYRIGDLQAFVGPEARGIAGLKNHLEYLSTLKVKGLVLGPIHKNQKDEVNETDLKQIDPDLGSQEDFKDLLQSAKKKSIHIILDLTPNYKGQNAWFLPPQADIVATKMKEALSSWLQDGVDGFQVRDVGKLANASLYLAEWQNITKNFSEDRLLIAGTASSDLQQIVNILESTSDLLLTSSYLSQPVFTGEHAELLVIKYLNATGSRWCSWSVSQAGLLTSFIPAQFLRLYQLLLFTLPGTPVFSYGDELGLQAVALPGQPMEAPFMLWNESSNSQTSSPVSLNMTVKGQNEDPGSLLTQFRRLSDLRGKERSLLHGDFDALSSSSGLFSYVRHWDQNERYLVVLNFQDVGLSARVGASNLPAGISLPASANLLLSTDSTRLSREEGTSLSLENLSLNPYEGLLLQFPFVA

[4] = target: T2, rat neutral amino acid transporter LAT1; experiment: Incorporation of radiolabeled amino acids into oocytes injected with rat LAT1 and rat 4F2hc cRNA; format: cell-based; set-up: expressed in transfected cells; host or cells: oocytes (Xenopus laevis by the cited method of Kanai and Hediger) injected with rat LAT1 cRNA and rat 4F2hc cRNA; details: 14C compounds as substrates
Protocol: Thus, the oocytes into which rat LAT1 gene cRNA, rat 4F2hc gene cRNA or rat LAT1 gene cRNA/rat 4F2hc gene cRNA was injected were incubated for 30 minutes in an uptake solution containing ^14C-leucine (50 μM) and incorporation of radioactivity into the oocytes was measured.
As a substrate however, various radiolabeled compounds were used in place of ^14C-leucine.

[5] = target: T1, human amino acid transporter LAT1; experiment: Competitive antagonism test: incorporation of 14C-labeled leucine or phenylalanine into oocytes co-expressing human LAT1 and human 4F2hc in the presence of test substance; format: cell-based; set-up: expressed in transfected cells; details: test substance 2 mM, 30 minutes; for inhibition of incorporation of 14C-labeled leucine mediated by the human LAT1: 14C-labeled leucine 20 μM, choline chloride uptake solution
[6] = target: T2, rat neutral amino acid transporter LAT1; details: read-out: Km value; leucine as substrate; oocytes injected with rat LAT1 and rat 4F2hc cRNA
[7] = system: T24 cells derived from human bladder cancer; experiment: Michaelis-Menten kinetic test for the incorporation of leucine by T24 cells; format: cell-based; details: leucine as substrate
Protocol: T24 cells derived from human bladder cancer were incubated and maintained in an Eagle's minimal essential medium containing 10% of fetal bovine serum. A test for the incorporation of amino acids into T24 cells was carried out by incubating the T24 cells on a 24-well plate and finished when the state became confluent. The amino acid incorporation test was started by removing the incubating solution and adding a Dulbecco's PBS (manufactured by Gibco) containing ^14C-amino acid and finished by removing it, cooling with ice and washing with a Dulbecco's PBS. After washing, the above was dissolved in 0.1N NaOH and the radioactivity was measured by a liquid scintillation counter.
A Michaelis-Menten kinetic test was carried out for the incorporation of leucine by T24 cells. The Michaelis-Menten kinetic test was conducted by investigating the changes in the incorporated rate of leucine by the difference in the concentration of the substrate leucine.

[8] = target: T1, human amino acid transporter LAT1; details: read-out: Michaelis constant (Km); leucine as substrate; Xenopus laevis oocytes co-expressing human LAT1 and human 4F2hc
Mouse sarcoma 180 cells = experiment: Survival of ICR mouse after intraperitoneal transplantation of mouse sarcoma 180 cells; format: in vivo; details: male ICR mouse, sarcoma 180 cells intraperitoneally transplanted, 300 mg/kg for ten days, observation for 19 days
Protocol: Mouse sarcoma 180 cells were intraperitoneally transplanted (1×10^6) to male ICR mouse and, from the next day of the transplantation, BCH which was a inhibitor for the amino acid transporter, D-Leu having a inhibiting effect on amino acid transporter and D-Ala having no inhibiting action thereon were administered at the dose of 300 mg/kg for ten days. After the transplantation, it was confirmed every day whether the mouse was dead or alive.

[9] = system: rat liver cell line where LAT1 was highly expressed; experiment: Cell proliferation of cultured rat liver cell line, Cell Counting Kit-8; format: cell-based; details: 20 mM added to William's medium, incubation for 48 hours
Protocol: A rat liver cell line where LAT1 was highly expressed was incubated on a William's medium, 20 mM of D-leucine or BCH which suppressed the incorporation mediated by LAT1 were added to the medium and, by means of an incubation for 48 hours, cell numbers were investigated using a Cell Counting Kit-8 (manufactured by Dojindo Laboratories). The cell numbers were measured as an absorption at 450 nm (O.D. 450).

Structure (SMILES)	incorporation in a cell in which human LAT1 and human 4F2hc are co-expressed [2]	inhibition of incorporation of 14C-leucine mediated by LAT1 [3]	inhibition of incorporation of 14C-leucine by T24 cells [1]	incorporation of radiolabeled substrate into the oocytes [4]	inhibition of incorporation of 14C-labeled leucine mediated by the human LAT1 [5]	incorporation of 14C-labeled amino acid into oocytes [2]	further results
N=C(N)NCCC[C@H](N)C(=O)O [arginine]	–	–	–	–	not affected at all	–	–
N[C@@H](Cc1ccc(N(CCCl)CCCl)cc1)C(=O)O [melphalan]	–	inhibited	–	–	–	–	–
N[C@@H](CC(=O)O)C(=O)O [aspartic acid]	–	–	–	–	not affected at all	–	–
N[C@@H](Cc1c[nH]c2ccccc12)C(=O)O [tryptophan]	very strong incorporation	strongly inhibited	strong cis-inhibiting effect	incorporation into the oocytes was noted	strongly inhibited	significantly incorporated	–
N[C@@H](CCC(=O)O)C(=O)O [glutamic acid]	–	–	–	–	not affected at all	–	–
C[C@@H](N)C(=O)O [D-Ala]	–	–	–	–	–	–	survival effect (Mouse sarcoma 180 cells): No survival effect
CSCC[C@H](N)C(=O)O [methionine]	very strong incorporation	strongly inhibited	strong cis-inhibiting effect	incorporation into the oocytes was noted	strongly inhibited	significantly incorporated	–
N[C@@H](Cc1c[nH]cn1)C(=O)O [histidine]	very strong incorporation	strongly inhibited	strong cis-inhibiting effect	incorporation into the oocytes was noted	strongly inhibited	significantly incorporated	–
CC(C)C[C@@H](N)C(=O)O [D-leucine]	–	–	–	–	–	incorporated	survival effect (Mouse sarcoma 180 cells): significant survival effect; cell numbers (O.D. 450) compared with control group [9]: a reduction in the cell numbers was noted
N[C@H](Cc1ccccc1)C(=O)O [D-phenylalanine]	–	–	–	–	–	incorporated	–
NCCCC[C@H](N)C(=O)O [lysine]	–	–	–	–	not affected at all	–	–

The next lines start with results.

incorporation in a cell in which human LAT1 and human 4F2hc are co-expressed [2]	inhibition of incorporation of 14C-leucine mediated by LAT1 [3]	Structure (SMILES)	inhibition of incorporation of 14C-leucine by T24 cells [1]	incorporation of radiolabeled substrate into the oocytes [4]	inhibition of incorporation of 14C-labeled leucine mediated by the human LAT1 [5]	incorporation of 14C-labeled amino acid into oocytes [2]	further results
significant incorporation	–	N[C@@H](CS)C(=O)O [cysteine]	strong cis-inhibiting effect	–	–	–	–
very strong incorporation	strongly inhibited	CC[C@H](C)[C@H](N)C(=O)O [isoleucine]	strong cis-inhibiting effect	incorporation into the oocytes was noted	strongly inhibited	significantly incorporated	–
very strong incorporation	strongly inhibited	N[C@@H](Cc1ccc(O)cc1)C(=O)O [tyrosine]	strong cis-inhibiting effect	incorporation into the oocytes was noted	strongly inhibited	significantly incorporated	–
very strong incorporation	strongly inhibited	N[C@@H](Cc1ccccc1)C(=O)O [phenylalanine]	strong cis-inhibiting effect	incorporation into the oocytes was noted	strongly inhibited	significantly incorporated	–
significant incorporation	–	NC(=O)CC[C@H](N)C(=O)O [glutamine]	–	–	–	–	–
very strong incorporation	strongly inhibited	CC(C)C[C@H](N)C(=O)O [leucine]	strong cis-inhibiting effect	big incorporation; also recorded: incorporation into the oocytes was noted	strongly inhibited	large incorporation; also recorded: significantly incorporated	Km [6]: ~24 µM; Km [7]: 100 µM; Vmax value of leucine incorporation [7]: 23,870 pmol/mg protein/minute; Km [8]: ~21 µM
very strong incorporation	strongly inhibited	CC(C)[C@H](N)C(=O)O [valine]	strong cis-inhibiting effect	incorporation into the oocytes was noted	strongly inhibited	significantly incorporated	–
significant incorporation	–	NC(=O)C[C@H](N)C(=O)O [asparagine]	–	–	–	–	–
confirmed	–	N[C@@H](Cc1ccc(O)c(O)c1)C(=O)O [L-DOPA]	–	–	–	–	inhibition of incorporation of 14C-labeled phenylalanine into oocytes ([5]; 14C-labeled phenylalanine instead of leucine, choline uptake solution): strongly inhibited
–	inhibited	N[C@@H](Cc1cc(I)c(Oc2cc(I)c(O)c(I)c2)c(I)c1)C(=O)O [thyroxin]	–	–	–	–	–
significant incorporation	–	C[C@@H](O)[C@H](N)C(=O)O [threonine]	–	–	–	–	–
